# Measured values from patent US12516058B2, “Small-molecule compounds for controlling endosomal toll-like receptors and therapeutic agent for autoimmune diseases using same” (priority 2020, dated 2026).
# Entries after “also recorded” stand apart in the source; their conditions may differ.
# Target: T1, TLR7 (Mus musculus, UniProt P58681)
# T1 construct: endogenous in cells; host or cells: RAW 264.7
# T1 sequence (P58681 27-1050): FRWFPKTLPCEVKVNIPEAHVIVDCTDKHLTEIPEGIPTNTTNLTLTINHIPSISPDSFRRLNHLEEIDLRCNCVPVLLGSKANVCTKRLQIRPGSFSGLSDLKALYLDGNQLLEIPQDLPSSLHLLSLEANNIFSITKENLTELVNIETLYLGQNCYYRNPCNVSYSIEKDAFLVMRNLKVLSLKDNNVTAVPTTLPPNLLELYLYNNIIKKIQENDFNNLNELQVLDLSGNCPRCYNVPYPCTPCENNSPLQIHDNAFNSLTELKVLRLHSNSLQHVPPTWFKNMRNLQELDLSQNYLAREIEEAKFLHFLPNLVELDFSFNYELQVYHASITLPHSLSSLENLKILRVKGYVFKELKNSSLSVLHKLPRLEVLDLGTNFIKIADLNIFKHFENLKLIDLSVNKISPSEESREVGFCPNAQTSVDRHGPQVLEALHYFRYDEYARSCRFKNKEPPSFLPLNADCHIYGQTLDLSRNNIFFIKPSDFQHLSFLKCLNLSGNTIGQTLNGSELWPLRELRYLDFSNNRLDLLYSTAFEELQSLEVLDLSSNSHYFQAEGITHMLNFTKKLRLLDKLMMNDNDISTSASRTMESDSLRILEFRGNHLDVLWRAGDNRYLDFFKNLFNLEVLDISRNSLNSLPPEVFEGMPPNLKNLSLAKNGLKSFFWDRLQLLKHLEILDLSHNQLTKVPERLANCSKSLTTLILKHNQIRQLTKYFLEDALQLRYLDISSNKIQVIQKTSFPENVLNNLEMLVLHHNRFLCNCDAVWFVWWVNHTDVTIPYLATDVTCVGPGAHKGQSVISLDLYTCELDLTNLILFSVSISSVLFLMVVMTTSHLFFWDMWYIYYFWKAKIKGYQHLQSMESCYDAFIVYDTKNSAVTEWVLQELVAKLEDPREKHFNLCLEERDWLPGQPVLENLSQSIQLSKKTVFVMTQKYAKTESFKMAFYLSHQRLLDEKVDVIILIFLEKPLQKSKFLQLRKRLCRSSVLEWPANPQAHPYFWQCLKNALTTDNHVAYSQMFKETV
# Assay: TNF-α secretion ELISA after TLR7 agonist imiquimod (IMQ) in RAW 264.7 cells
# Type: cell-based
# Settings: SK01 and structural derivatives, inhibitor 1 h, then IMQ 4 h
row,SMILES,inhibitory activity against TLR7 activation (TNF-α secretion)
1,"Cc1c(C)n(CCN(C)C)c2nc3c(c(N)c12)CCCCC3 [SK01, 1-(2-(dimethylamino)ethyl)-2,3-dimethyl-1,5,6,7,8,9-hexahydrocyclohepta[b]pyrrolo[3,2-e]pyridin-4-amine]",inhibitory ability for TLR7/TLR9 activation was verified; also recorded: specifically inhibit
2,"Cc1c(C)n(CCCN(C)C)c2nc3c(c(N)c12)CCCCC3 [SK16, 1-(3-(dimethylamino)propyl)-2,3-dimethyl-1,5,6,7,8,9-hexahydrocyclohepta[b]pyrrolo[3,2-e]pyridin-4-amine]",potent inhibitor; also recorded: best inhibitory activity among the structural analogues of SK01; also recorded: specifically inhibit

# Same assay, conditions: SK21 to SK82 at 0.5 μM or 2 μM, Imiquimod 1 μg/ml
row,SMILES,inhibitory activity against TLR7 (level of TNF-α secretion)
1,"Cc1ccc2c(c1)c1c(N)c3c(nc1n2CCCN(C)C)CCCC3 [SK58, 6-(3-(dimethylamino)propyl)-9-methyl-2,3,4,6-tetrahydro-1H-indolo[2,3-b]quinolin-11-amine]",significant inhibitory activity; also recorded: significantly reduced
2,"COc1ccc2c(c1)c1c(N)c3c(nc1n2CCCN(C)C)CCCC3 [SK50, 6-(3-(dimethylamino)propyl)-9-methoxy-2,3,4,6-tetrahydro-1H-indolo[2,3-b]quinolin-11-amine]",significant inhibitory activity; also recorded: significantly reduced
3,"Cc1cc2c(N)c3c(nc2n1CCCN(C)C)CCCCCC3 [SK41, 1-(3-(dimethylamino)propyl)-2-methyl-5,6,7,8,9,10-hexahydro-1H-cycloocta[b]pyrrolo[3,2-e]pyridin-4-amine]",significant inhibitory activity; also recorded: significantly reduced
4,"COC(=O)c1ccc2c(c1)c1c(N)c3c(nc1n2CCCN(C)C)CCCC3 [SK64, Methyl 11-amino-6-(3-(dimethylamino)propyl)-2,3,4,6-tetrahydro-1H-indolo[2,3-b]quinolin-9-carboxylate]",significant inhibitory activity; also recorded: significantly reduced
